Reference: patent US10195196B2, “1,4-disubstituted pyridazine analogs there of and methods for treating SMN-deficiency-related conditions” (NOVARTIS AG, priority 2012, dated 2019)

Tested on: SMN protein
Test: cellular SMN ELISA (SMN protein elevation)
Format: cell-based
Details: myoblast cell line from SMNdelta7 mouse model, 24 hours treatment; for SMN activity Fold: fold activation over DMSO control
Summary of the method: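 SMNdelta7 mouse-derived myoblasts were treated with compound for 24 h, then lysed. SMN protein was quantified by sandwich ELISA (HRP/TMB, 450 nm) and reported as fold over DMSO and EC50, over 20 nM–10 μM or 100 pM–10 μM depending on condition.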

[1] = ELISA condition 2: compound concentration 100 pM-10 uM
[2] = ELISA condition 1: compound concentration range 20 nM-10 uM

SMILES | EC50 [1] | SMN activity Fold [1] | EC50 [2] | SMN activity Fold [2]
Oc1ccc2cc(-c3ccc(C4CCNCC4)nn3)c(O)cc2c1 [Example 19-7, 3-(6-(piperidin-4-yl)pyridazin-3-yl)naphthalene-2,7-diol] | 37 nM | 3.07 Fold |  | 
CN(c1ccc(-c2ccc(-c3cn(C)cn3)cc2O)nn1)C1CC(C)(C)NC(C)(C)C1 [Example 42-6, 2-(6-(methyl(2,2,6,6-tetramethylpiperidin-4-yl)amino)pyridazin-3-yl)-5-(1-methyl-1H-imidazol-4-yl)phenol] | 66 nM | 2.49 Fold |  | 
CN(c1ccc(-c2ccc3cnc(OCc4ccccc4)cc3c2)nn1)C1CC(C)(C)NC(C)(C)C1 [Example 39-1, 6-(3-(benzyloxy)isoquinolin-6-yl)-N-methyl-N-(2,2,6,6-tetramethylpiperidin-4-yl)pyridazin-3-amine] | 1030 nM | 2.65 Fold |  | 
CN(c1ccc(-c2cc3cc(C#N)ccc3s2)nn1)C1CC(C)(C)NC(C)(C)C1 [Example 1-4, 2-(6-(methyl-(2,2,6,6-tetra-methylpiperidin-4-yl)amino)pyridazin-3-yl)benzo[b]-thio-phene-5-carbonitrile] |  |  | 90 nM | 2.05 Fold
C[C@H](O)[C@@H]1CC(Oc2ccc(-c3ccc(-n4cccn4)cc3O)nn2)CC(C)(C)N1 (some centres unmarked) [Example 23-1] | 3650 nM | 2.32 Fold |  | 
Cc1cc(-c2ccc(-c3ccc(N(C)C4CC(C)(C)NC(C)(C)C4)nn3)c(O)c2)ccn1 [Example 41-20, 2-(6-(methyl(2,2,6,6-tetramethylpiperidin-4-yl)amino)pyridazin-3-yl)-5-(2-methylpyridin-4-yl)phenol] | 32 nM | 2.63 Fold |  | 
CN(c1ccc(-c2cc(C(F)(F)F)ccc2O)nn1)C1CC(C)(C)NC(C)(C)C1 [Example 3-7, 2-{6-[methyl-(2,2,6,6-tetramethyl-piperidin-4-yl)-amino]-pyridazin-3-yl}-4-trifluoromethyl-phenol] |  |  | 4530 nM | 2.67 Fold
CC1(C)CC(Oc2ccc(-c3ccc(-n4cccn4)cc3O)nn2)CCN1 (centres unmarked) [Example 31-1, 2-(6-((2,2-dimethylpiperidin-4-yl)oxy)pyridazin-3-yl)-5-(1H-pyrazol-1-yl)phenol] | 200 nM | 3.03 Fold |  | 
Cc1nc(-c2ccc(-c3ccc(N(C)C4CC(C)(C)NC(C)(C)C4)nn3)c(O)c2)cn1C [Example 42-10, 5-(1,2-dimethyl-1H-imidazol-4-yl)-2-(6-(methyl(2,2,6,6-tetramethylpiperidin-4-yl)amino)pyridazin-3-yl)phenol] | 57 nM | 3.10 Fold |  | 
CN(c1ccc(-c2cc3ccc(O)cc3cc2O)nn1)C1CC(C)(C)NC(C)(C)C1 [Example 20-2, 3-(6-(methyl(2,2,6,6-tetramethylpiperidin-4-yl)amino)pyridazin-3-yl)naphthalene-2,7-diol] | 4 nM | 2.79 Fold |  | 
CC1(C)CC(N(CCO)c2ccc(-c3ccc(-n4cccn4)cc3O)nn2)CC(C)(C)N1 [Example 16-5, 2-{6-[(2-hydroxy-ethyl)-(2,2,6,6-tetramethyl-piperidin-4-yl)-amino]-pyridazin-3-yl}-5-pyrazol-1-yl-phenol] | 24 nM | 2.41 Fold |  | 
CN(c1ccc(-c2cc(C#N)ccc2O)nn1)C1CC(C)(C)NC(C)(C)C1 [Example 3-5, 4-hydroxy-3-(6-(methyl(2,2,6,6-tetramethylpiperidin-4-yl)amino)pyridazin-3-yl)benzonitrile] |  |  | 100 nM | 2.38 Fold
CN(C)C1CCCN(c2ccc(-c3ccc(-n4cccn4)cc3O)nn2)C1 (centres unmarked) [Example 18-13, 2-[6-(3-dimethyl-amino-piperidin-1-yl)-pyridazin-3-yl]-5-pyrazol-1-yl-phenol] | 1240 nM | 2.28 Fold |  | 
CN(c1ccc(-c2cc(-c3cnn4c3CNCC4)ccc2O)nn1)C1CC(C)(C)NC(C)(C)C1 [Example 32-3, 2-(6-(methyl(2,2,6,6-tetramethylpiperidin-4-yl)amino)pyridazin-3-yl)-4-(4,5,6,7-tetrahydropyrazolo[1,5-a]pyrazin-3-yl)phenol] | 201 nM | 2.44 Fold |  | 
CN(c1ccc(-c2ccc(-c3cncn3C)cc2O)nn1)C1CC(C)(C)NC(C)(C)C1 [Example 42-7, 2-(6-(methyl(2,2,6,6-tetramethylpiperidin-4-yl)amino)pyridazin-3-yl)-5-(1-methyl-1H-imidazol-5-yl)phenol] | 55 nM | 2.51 Fold |  | 
CC1(C)CC(Oc2ccc(-c3c(O)cc(-c4cn[nH]c4)cc3F)nn2)CC(C)(C)N1 [Example 40-5, 3-fluoro-5-(1H-pyrazol-4-yl)-2-(6-((2,2,6,6-tetramethylpiperidin-4-yl)oxy)pyridazin-3-yl)phenol] | 17 nM | 3.59 Fold |  | 

SMILES | EC50 [1] | SMN activity Fold [1] | EC50 [2] | SMN activity Fold [2]
CN(c1ccc(-c2cc3ccc(O)c(Cl)c3cc2O)nn1)C1CC(C)(C)NC(C)(C)C1 [Example 24-5, 1-chloro-6-(6-(methyl(2,2,6,6-tetramethylpiperidin-4-yl)amino)pyridazin-3-yl)naphthalene-2,7-diol] | 47 nM | 2.99 Fold |  | 
CC1CC(Oc2ccc(-c3ccc(-n4cccn4)cc3O)nn2)CC(C)N1 (single isomer, unassigned) [Example 17-3, 2-(6-((2,6-Dimethylpiperidin-4-yl)oxy)pyridazin-3-yl)-5-(1H-pyrazol-1-yl)phenol] | 183 nM | 2.75 Fold |  | 
CN(c1ccc(-c2ccc(-c3cnn(CCN4CCOCC4)c3)cc2O)nn1)C1CC(C)(C)NC(C)(C)C1 [Example 16-1, 2-(6-(methyl(2,2,6,6-tetramethylpiperidin-4-yl)amino)pyridazin-3-yl)-5-(1-(2-morpholino-ethyl)-1H-pyrazol-4-yl)phenol] | 77 nM | 2.66 Fold |  | 
COCCCOc1ccc2cc(-c3ccc(N(C)C4CC(C)(C)NC(C)(C)C4)nn3)c(O)cc2c1 [Example 20-8, 7-(3-methoxypropoxy)-3-(6-(methyl(2,2,6,6-tetramethylpiperidin-4-yl)amino)pyridazin-3-yl)naphthalen-2-ol] | 30 nM | 2.61 Fold |  | 
Cc1nc(-c2ccc(-c3ccc(N(C)C4CC(C)(C)NC(C)(C)C4)nn3)c(O)c2)c[nH]1 [Example 42-9, 2-(6-(methyl(2,2,6,6-tetramethylpiperidin-4-yl)amino)pyridazin-3-yl)-5-(2-methyl-1H-imidazol-4-yl)phenol] | 15 nM | 2.85 Fold |  | 
CN(c1ccc(-c2cc3c(cc2O)CCn2cncc2-3)nn1)C1CC(C)(C)NC(C)(C)C1 [Example 35-6, 9-(6-(methyl(2,2,6,6-tetramethylpiperidin-4-yl)amino)pyridazin-3-yl)-5,6-dihydroimidazo[5,1-a]isoquinolin-8-ol] | 51 nM | 2.21 Fold |  | 
CN(c1ccc(-c2cc3ccc(OCCCO)cc3cc2O)nn1)C1CC(C)(C)NC(C)(C)C1 [Example 20-7, 7-(3-hydroxypropoxy)-3-(6-(methyl(2,2,6,6-tetramethylpiperidin-4-yl)amino)pyridazin-3-yl)naphthalen-2-ol] | 7 nM | 2.75 Fold |  | 
CN(c1ccc(-c2ccc(-c3cnc4cnccn34)cc2O)nn1)C1CC(C)(C)NC(C)(C)C1 [Example 42-3, 5-(imidazo[1,2-a]pyrazin-3-yl)-2-(6-(methyl(2,2,6,6-tetramethylpiperidin-4-yl)amino)pyridazin-3-yl)phenol] | 99 nM | 2.92 Fold |  | 
Cc1c[nH]c(-c2ccc(-c3ccc(N(C)C4CC(C)(C)NC(C)(C)C4)nn3)c(O)c2)n1 [Example 42-5, 2-(6-(methyl(2,2,6,6-tetramethylpiperidin-4-yl)amino)pyridazin-3-yl)-5-(4-methyl-1H-imidazol-2-yl)phenol] | 202 nM | 3.22 Fold |  | 
CC1(C)CC(Nc2ccc(-c3ccc4nonc4c3)nn2)CC(C)(C)N1 [Example 2-1, 6-(benzo[c][1,2,5]oxa-diazol-5-yl)-N-(2,2,6,6-tetramethyl-piperidin-4-yl)pyridazin-3-amine] |  |  | 1370 nM | 2.68 Fold
COc1cc(-c2cnn(C3CCCC3)c2)cc(O)c1-c1ccc(N(C)C2CC(C)(C)NC(C)(C)C2)nn1 [Example 26-4, 5-(1-cyclopentyl-1H-pyrazol-4-yl)-3-methoxy-2-(6-(methyl(2,2,6,6-tetramethylpiperidin-4-yl)amino)pyridazin-3-yl)phenol] | 649 nM | 2.22 Fold |  | 
Oc1cc(-n2cccn2)ccc1-c1ccc(N2CCCNCC2)nn1 [Example 18-6, 2-(6-[1,4]diazepan-1-yl-pyridazin-3-yl)-5-pyrazol-1-yl-phenol] | 268 nM | 2.54 Fold |  | 
CC1(N)CCN(c2ccc(-c3ccc(-n4cccn4)cc3O)nn2)CC1 [Example 18-12, 2-[6-(4-amino-4-methyl-piperidin-1-yl)-pyridazin-3-yl]-5-pyrazol-1-yl-phenol] | 792 nM | 2.62 Fold |  | 
COc1ccc2cc(-c3ccc(N(C)C4CC(C)(C)N(C)C(C)(C)C4)nn3)c(O)cc2c1 [Example 24-7, 7-methoxy-3-(6-(methyl(1,2,2,6,6-pentamethylpiperidin-4-yl)amino)pyridazin-3-yl)naphthalen-2-ol] | 31 nM | 2.57 Fold |  | 
CN(c1ccc(-c2cc3c(cc2O)/C(=N/O)CC3)nn1)C1CC(C)(C)NC(C)(C)C1 [Example 35-3, 6-hydroxy-5-(6-(methyl(2,2,6,6-tetramethylpiperidin-4-yl)amino)pyridazin-3-yl)-2,3-dihydro-1H-inden-1-one oxime] | 11 nM | 2.62 Fold |  | 
